Converted amounts (≈) assume the structure as drawn. The source made the active and inactive calls. The calls are words filed in the database; no cut-off is given here.
Legend:
[1] = molecular target: T1, Adenosine receptor A3 (Homo sapiens) (UniProt P0DMS8); test: Displacement of [3H]PSB-11 from human A3 receptor expressed in CHO cell membrane at 1 uM by liquid scintillation counting method relative to control relative to control; format: cell membranes
T1 sequence (whole entry): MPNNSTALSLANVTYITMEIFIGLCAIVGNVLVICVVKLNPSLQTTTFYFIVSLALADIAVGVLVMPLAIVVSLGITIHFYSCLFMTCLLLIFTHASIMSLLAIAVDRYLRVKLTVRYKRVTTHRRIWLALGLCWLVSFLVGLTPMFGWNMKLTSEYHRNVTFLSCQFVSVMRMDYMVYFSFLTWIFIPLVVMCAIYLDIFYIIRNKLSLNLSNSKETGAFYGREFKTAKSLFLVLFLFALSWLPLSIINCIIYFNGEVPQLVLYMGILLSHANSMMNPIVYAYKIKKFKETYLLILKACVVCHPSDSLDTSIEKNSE

[2] = molecular target: T2, Adenosine receptor A2b (Homo sapiens, UniProt P29275); test: Displacement of [3H]PSB-603 from human A2B receptor expressed in CHO cell membrane measured after 75 mins by liquid scintillation counting method; format: cell membranes
T2 sequence (P29275 whole entry): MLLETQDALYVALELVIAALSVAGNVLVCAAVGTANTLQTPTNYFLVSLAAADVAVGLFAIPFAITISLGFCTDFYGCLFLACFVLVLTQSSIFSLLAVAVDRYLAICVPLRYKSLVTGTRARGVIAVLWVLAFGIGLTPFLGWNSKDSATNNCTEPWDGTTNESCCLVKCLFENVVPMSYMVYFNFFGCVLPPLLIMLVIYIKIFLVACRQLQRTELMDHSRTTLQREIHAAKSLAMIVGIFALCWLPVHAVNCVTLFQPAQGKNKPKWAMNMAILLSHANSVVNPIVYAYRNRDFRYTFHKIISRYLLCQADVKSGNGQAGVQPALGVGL

[3] = molecular target: T3, Adenosine receptor A1 (Rattus norvegicus, UniProt P25099); test: Displacement of [3H]MSX from rat A1 receptor measured after 75 mins by liquid scintillation counting method
T3 sequence (P25099 whole entry): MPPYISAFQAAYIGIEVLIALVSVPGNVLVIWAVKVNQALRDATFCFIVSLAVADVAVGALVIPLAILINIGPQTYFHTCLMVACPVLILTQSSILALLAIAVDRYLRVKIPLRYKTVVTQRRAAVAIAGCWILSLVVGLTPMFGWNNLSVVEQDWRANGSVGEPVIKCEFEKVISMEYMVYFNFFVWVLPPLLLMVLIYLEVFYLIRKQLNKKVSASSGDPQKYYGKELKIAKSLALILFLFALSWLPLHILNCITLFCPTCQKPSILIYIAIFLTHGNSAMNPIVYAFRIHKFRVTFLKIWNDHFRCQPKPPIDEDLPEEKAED

[4] = molecular target: T4, Amine oxidase [flavin-containing] B (Homo sapiens, UniProt P27338); test: Inhibition of recombinant human MAO-B expressed in baculovirus infected BTI insect cells preincubated for 30 mins followed by addition of p-tyramine as substrate measured over 45 mins by Amplex Red MAO assay
T4 sequence (P27338 whole entry): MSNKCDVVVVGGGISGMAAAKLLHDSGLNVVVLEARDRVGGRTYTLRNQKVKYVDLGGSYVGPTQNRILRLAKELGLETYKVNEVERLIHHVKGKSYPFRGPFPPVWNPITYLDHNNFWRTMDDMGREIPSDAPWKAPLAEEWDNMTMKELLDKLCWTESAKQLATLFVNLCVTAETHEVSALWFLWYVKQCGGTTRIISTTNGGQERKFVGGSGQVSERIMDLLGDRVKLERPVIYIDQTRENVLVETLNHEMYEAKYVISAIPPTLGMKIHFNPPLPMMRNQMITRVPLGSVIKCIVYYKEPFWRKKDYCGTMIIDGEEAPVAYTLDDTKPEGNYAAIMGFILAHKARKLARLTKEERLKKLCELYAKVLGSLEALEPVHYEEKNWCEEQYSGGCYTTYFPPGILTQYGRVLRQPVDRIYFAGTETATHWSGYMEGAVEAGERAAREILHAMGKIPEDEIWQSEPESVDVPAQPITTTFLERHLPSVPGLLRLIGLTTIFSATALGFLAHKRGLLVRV

[5] = molecular target: T5, Adenosine receptor A2a (Homo sapiens, UniProt P29274); test: Displacement of [3H]MSX from human A2A receptor by liquid scintillation counting method
T5 sequence (P29274 whole entry): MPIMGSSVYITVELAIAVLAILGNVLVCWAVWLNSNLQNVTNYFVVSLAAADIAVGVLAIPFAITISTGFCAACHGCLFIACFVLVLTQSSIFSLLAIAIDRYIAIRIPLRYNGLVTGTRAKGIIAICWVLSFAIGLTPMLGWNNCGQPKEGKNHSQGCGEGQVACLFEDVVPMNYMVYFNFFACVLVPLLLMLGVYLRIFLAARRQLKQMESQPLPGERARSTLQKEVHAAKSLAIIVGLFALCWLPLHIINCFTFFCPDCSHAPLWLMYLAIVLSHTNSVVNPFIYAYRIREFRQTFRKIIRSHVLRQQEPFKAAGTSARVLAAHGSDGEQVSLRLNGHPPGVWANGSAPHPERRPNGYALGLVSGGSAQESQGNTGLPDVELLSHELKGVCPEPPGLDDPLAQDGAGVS

[6] = molecular target: T6, Adenosine receptor A1 (Homo sapiens, UniProt P30542); test: Displacement of [3H]CCPA from human A1 receptor expressed in CHO cell membrane by liquid scintillation counting method; format: cell membranes
T6 sequence (P30542 whole entry): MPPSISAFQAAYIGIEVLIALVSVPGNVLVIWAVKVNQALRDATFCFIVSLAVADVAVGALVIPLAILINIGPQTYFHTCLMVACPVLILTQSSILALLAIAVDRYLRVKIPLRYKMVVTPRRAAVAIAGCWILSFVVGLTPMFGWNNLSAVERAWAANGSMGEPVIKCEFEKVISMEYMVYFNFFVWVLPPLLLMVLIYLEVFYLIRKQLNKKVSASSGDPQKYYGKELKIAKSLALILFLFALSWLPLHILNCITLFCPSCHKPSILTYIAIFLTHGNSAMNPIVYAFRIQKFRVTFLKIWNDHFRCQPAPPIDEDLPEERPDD

[7] = molecular target: T7, Amine oxidase [flavin-containing] A (Homo sapiens, UniProt P21397); test: Inhibition of recombinant human MAO-A expressed in baculovirus infected BTI insect cells preincubated for 30 mins followed by addition of p-tyramine as substrate measured over 45 mins by Amplex Red MAO assay
T7 sequence (P21397 whole entry): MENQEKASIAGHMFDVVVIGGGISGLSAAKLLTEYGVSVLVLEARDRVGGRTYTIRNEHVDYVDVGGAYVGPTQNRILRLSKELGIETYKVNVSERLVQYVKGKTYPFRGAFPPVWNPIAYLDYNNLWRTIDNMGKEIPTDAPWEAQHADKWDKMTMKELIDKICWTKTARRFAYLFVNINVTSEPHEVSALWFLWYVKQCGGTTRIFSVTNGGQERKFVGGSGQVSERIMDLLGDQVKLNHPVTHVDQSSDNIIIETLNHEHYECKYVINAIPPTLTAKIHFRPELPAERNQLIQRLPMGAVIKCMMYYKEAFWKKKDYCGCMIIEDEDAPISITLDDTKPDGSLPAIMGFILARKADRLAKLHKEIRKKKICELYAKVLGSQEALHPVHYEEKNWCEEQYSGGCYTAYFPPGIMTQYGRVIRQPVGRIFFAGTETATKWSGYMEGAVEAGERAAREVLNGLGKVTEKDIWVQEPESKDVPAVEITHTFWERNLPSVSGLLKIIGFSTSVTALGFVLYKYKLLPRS

[8] = molecular target: T7, Amine oxidase [flavin-containing] A; test: Inhibition of recombinant human MAO-A expressed in baculovirus infected BTI insect cells at 10 uM preincubated for 30 mins followed by addition of p-tyramine as substrate measured over 45 mins by Amplex Red MAO assay relative to control; details: 0.75 h
[9] = molecular target: T8, Adenosine receptor A2b (Homo sapiens) (UniProt P29275); test: Displacement of [3H]PSB-603 from human A2B receptor expressed in CHO cell membrane measured after 75 mins by liquid scintillation counting method relative to control; format: cell membranes
T8 sequence (whole entry): T2 sequence (P29275 whole entry)

[10] = molecular target: T9, Adenosine receptor A3 (Homo sapiens, UniProt P0DMS8); test: Displacement of [3H]PSB-11 from human A3 receptor expressed in CHO cell membrane by liquid scintillation counting method relative to control; format: cell membranes
T9 sequence (P0DMS8 whole entry): T1 sequence (whole entry)

[11] = molecular target: T3, Adenosine receptor A1; test: Displacement of [3H]CCPA from rat A1 receptor by liquid scintillation counting method
[12] = molecular target: Adenosine receptor A2a (Rattus norvegicus, UniProt P30543); test: Displacement of [3H]MSX from A2A receptor in rat brain striatum membranes measured after 30 mins by liquid scintillation counting method; format: cell membranes
Adenosine receptor A2a (Rattus norvegicus, UniProt P30543), sequence (P30543 whole entry): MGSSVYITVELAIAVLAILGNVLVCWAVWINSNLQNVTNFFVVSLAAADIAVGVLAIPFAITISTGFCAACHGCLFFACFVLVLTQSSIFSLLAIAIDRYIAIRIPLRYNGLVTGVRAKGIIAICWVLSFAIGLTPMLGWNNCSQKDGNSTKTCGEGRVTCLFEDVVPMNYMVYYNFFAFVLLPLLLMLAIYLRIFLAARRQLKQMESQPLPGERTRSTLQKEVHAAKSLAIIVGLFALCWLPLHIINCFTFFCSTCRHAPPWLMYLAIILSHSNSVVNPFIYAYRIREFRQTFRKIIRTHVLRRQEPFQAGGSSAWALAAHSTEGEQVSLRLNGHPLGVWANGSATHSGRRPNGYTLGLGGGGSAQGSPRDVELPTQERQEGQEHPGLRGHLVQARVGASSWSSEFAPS

[13] = molecular target: T3, Adenosine receptor A1; test: Displacement of [3H]CCPA from A1 receptor in rat brain cortex membranes by liquid scintillation counting method; format: cell membranes
[14] = molecular target: T2, Adenosine receptor A2b; test: Displacement of [3H]PSB-603 from human A2B receptor expressed in CHO cell membrane; format: cell membranes
[15] = molecular target: T10, Adenosine receptor A1 (Rattus norvegicus) (UniProt P25099); test: Displacement of [3H]CCPA from A1 receptor in rat brain cortex membranes at 1.5 uM by liquid scintillation counting method; format: cell membranes
T10 sequence (whole entry): T3 sequence (P25099 whole entry)

[16] = molecular target: T4, Amine oxidase [flavin-containing] B; test: Inhibition of recombinant human MAO-B expressed in baculovirus infected BTI insect cells at 10 uM preincubated for 30 mins followed by addition of p-tyramine as substrate measured over 45 mins by Amplex Red MAO assay relative to control; details: 0.75 h
[17] = molecular target: Adenosine receptor A2a (Rattus norvegicus) (UniProt P30543); test: Displacement of [3H]MSX from A2A receptor in rat brain striatum membranes at 1 uM measured after 30 mins by liquid scintillation counting method relative to control; format: cell membranes
Adenosine receptor A2a (Rattus norvegicus), sequence (P30543 whole entry): as above

[18] = molecular target: T8, Adenosine receptor A2b (Homo sapiens); test: Displacement of [3H]PSB-603 from human A2B receptor expressed in CHO cell membrane at 1 uM relative to control; format: cell membranes
[19] = molecular target: T1, Adenosine receptor A3 (Homo sapiens); test: Displacement of [3H]PSB-11 from human A3 receptor expressed in CHO cell membrane at 3 uM by liquid scintillation counting method relative to control relative to control; format: cell membranes
[20] = Thermodynamic solubility of the compound at pH 4; format: physicochemical; details: buffer, read-out: Therm_solubility
[21] = Thermodynamic solubility of the compound at pH 7.4; format: physicochemical; details: buffer, read-out: Therm_solubility
[22] = Thermodynamic solubility of the compound at pH 1; format: physicochemical; details: buffer, read-out: Therm_solubility
[23] = molecular target: T5, Adenosine receptor A2a; test: Agonist activity at recombinant human A2A receptor expressed in CHO cells assessed as increase in forskolin-induced cAMP level at 10 uM preincubated for 20 mins prior to forskolin-stimulation measure after 5 mins by liquid scintillation counting method; format: functional, cell-based
[24] = molecular target: T5, Adenosine receptor A2a; test: Agonist activity at recombinant human A2A receptor expressed in CHO cells assessed as increase in forskolin-induced cAMP level at 1 uM preincubated for 20 mins prior to forskolin-stimulation measure after 5 mins by liquid scintillation counting method; format: functional, cell-based
[25] = molecular target: T5, Adenosine receptor A2a; test: Displacement of [3H]MSX from human A2A receptor measured after 30 mins by liquid scintillation counting method
[26] = molecular target: T11, Adenosine receptor A1 (Homo sapiens) (UniProt P30542); test: Agonist activity at recombinant human A1 receptor expressed in CHO cells assessed as inhibition of forskolin-induced cAMP accumulation at 10 uM preincubated for 20 mins prior to forskolin-stimulation measure after 5 mins by liquid scintillation counting method; format: functional, cell-based
T11 sequence (whole entry): T6 sequence (P30542 whole entry)

[27] = molecular target: T11, Adenosine receptor A1 (Homo sapiens); test: Agonist activity at recombinant human A1 receptor expressed in CHO cells assessed as inhibition of forskolin-induced cAMP accumulation at 1 uM preincubated for 20 mins prior to forskolin-stimulation measure after 5 mins by liquid scintillation counting method; format: functional, cell-based

Activity [1]	IC50 [4]	Ki [6]	IC50 [7]	inhibition at 10 µM [8]	Ki [10]	Ki [12]	Ki [13]	Ki [14]	Activity [15]	inhibition at 10 µM [16]	Activity [17]	Activity [18]	solubility thermodynamic [20]	solubility thermodynamic [21]	solubility thermodynamic [22]	SMILES	further results
13%	197 nM	791 nM	> 10000 nM	5%	> 1000 nM	–	–	–	–	–	–	–	–	–	–	Cn1c(=O)c2c(nc3n2CCN(Cc2ccc(Cl)c(Cl)c2)C3)n(C)c1=O	Ki [2]: > 1000 nM; Ki [3]: 322 nM; Ki [5]: 1510 nM; Activity [9]: 15%; Ki [11]: 351 nM
2%	> 10000 nM	–	–	–	> 1000 nM	> 10000 nM	> 1500 nM	> 1000 nM	1%	15%	34%	9%	–	–	–	Cn1c(=O)c2c(nc3n2CCN(c2ccc(Cl)cc2)C3)n(C)c1=O	–
–	> 10000 nM	–	> 10000 nM	34%	> 3000 nM	> 1000 nM	> 1500 nM	> 1000 nM	3%	3%	27%	8%	< 0.5 µg/mL	< 0.5 µg/mL	300 µg/mL (≈ 669 µM)	COc1ccc(Br)cc1CCN1CCn2c(nc3c2c(=O)n(C)c(=O)n3C)C1	Activity [19]: 14%
–	10000 nM	236 nM	–	–	7490 nM	355 nM	157 nM	> 1000 nM	–	54%	–	25%	< 0.5 µg/mL	< 0.5 µg/mL	200 µg/mL (≈ 420 µM)	Cn1c(=O)c2c(nc3n2CCN(Cc2csc(-c4ccc(C(F)(F)F)cc4)n2)C3)n(C)c1=O	Activity [23]: inactive; Activity [24]: inactive; Ki [25]: 217 nM; Activity [26]: inactive; Activity [27]: inactive

Reference: ChEMBL document CHEMBL4428125, “8-Substituted 1,3-dimethyltetrahydropyrazino[2,1-f]purinediones: Water-soluble adenosine receptor antagonists and monoamine oxidase B inhibitors” (Bioorg Med Chem, 2016)
